Experimental data published in patent US9789096B2, “Methods and compositions for selective and targeted cancer therapy” (Board of Regents of the University of Texas System, priority 2013, dated 2017).
Where two headings read alike, the source gives them in different places.

What was measured:
[1] = system: H1819; test: Cell viability dose-response, H1819; assay type: cell-based, human; conditions: Homo sapiens
Description: (§1) FIG. 6A. […] Cell viability is plotted vs. compound concentration. Compound was added to cells plated at 15% confluence in 96-well plates in RPMI-1640 media supplemented with 5% Fetal Bovine Serum and 2 mM L-Glutamine. After 4 days of incubation, ATP levels were measured using Cell Titer Glo (Promega). Data are presented as the average of 2 replicates ±SEM.
(§2) Selectivity may be measured by the half maximal inhibitory concentration (IC50), which, as used herein, is a measure of the effectiveness of a compound in killing cells. This quantitative measure indicates how much of a particular compound is needed to kill a particular cell population by half (e.g., as indicated by the amount of ATP). […] The IC50 can be determined by constructing a dose-response curve. The lower the IC50, the higher the potency, and the greater the difference between IC50 values for different cell lines (e.g., sensitive lines vs. insensitive lines, and sensitive lines vs. normal lines) the greater the selectivity. […]
(§3) With this information, we synthesized and tested a series of small molecules derived in conception from the oxalamide and chromone scaffold including N-acyl ureas, as shown in Tables 6-8. Each compound was tested in a 12-point dose-response study starting at 50 micromolar and decreasing in 3-fold increments to sub-nanomolar concentrations, in duplicate. Additionally, one or more additional cell line was tested in the same way.

[2] = system: H2122; test: Cell viability dose-response, H2122; assay type: cell-based, human; conditions: Homo sapiens
Description: as §1, §2, §3

[3] = NCI-H1819, 12-point dose-response starting at 50 micromolar, 3-fold increments, in duplicate, read-out: toxicity data, H1819
[4] = NCI-H2122, 12-point dose-response starting at 50 micromolar, 3-fold increments, in duplicate, read-out: toxicity data, H2122
[5] = NCI-H2122, Tables 3 and 4, read-out: IC50 (uM) vs indicated non-small cell lung cancer cell line H2122

Structure (SMILES) | IC50 [1, 3] | IC50 [2, 4] | IC50 [2, 5] | further results
COc1ccc(CCNC(=O)Nc2ccc(OC)cc2)cc1 [SW208024-1-A] | ≥ 49.5 µM | ≥ 49.5 µM |  | 
COc1ccc(CCNC(=O)C(=O)Nc2ccc(Cl)cn2)cc1 [SW208123-1-A] | 46.3 µM | 0.348 µM |  | 
COc1ccc(CCNC(=O)C(=O)O)cc1 [SW208132-1-A] | ≥ 49.5 µM | ≥ 49.5 µM |  | 
COc1ccc(CCNC(=O)C(=O)Nc2ccc(C(=O)c3ccc(OC)cc3)cc2)cc1 [SW208009-1-A] | ≥ 49.5 µM | 0.081 µM |  | 
COc1ccc(CNC(=O)CNc2ccc(Cl)cc2)cc1 [SW208042-1-A] | ≥ 49.5 µM | ≥ 49.5 µM |  | 
COc1ccc2nc(NC(=O)c3ccc(C(O)c4ccccc4)cc3)sc2c1 (stereo not shown) [SW207003] |  |  | 0.006 µM | 
COc1ccc(CCNC(=O)C(=O)Nc2ccc(Cl)nc2)cc1 [SW208127-1-A] | ≥ 49.5 µM | 0.438 µM |  | 
COc1ccc(CCNC(=O)C(=O)Nc2ccc(Cl)cc2F)cc1 [SW206951-1] | ≥ 49.5 µM | ≥ 49.5 µM |  | 
COc1ccc(CCNC(=O)C(=O)N(C)c2cccc(F)c2)cc1 [SW208028-1-A] | ≥ 49.5 µM | ≥ 49.5 µM |  | 
COc1ccc(CCNC(=O)COc2ccc(Cl)cc2)cc1 [SW208038-1-A] | ≥ 49.5 µM | ≥ 49.5 µM |  | 
COc1ccc(CCNC(=O)C(=O)Nc2ccc(Cl)cc2C)cc1 [SW206926-1] | ≥ 49.5 µM | ≥ 49.5 µM |  | 
COc1ccc(CCNC(=O)C(=O)Nc2ccc(C)cc2OC)cc1 [SW206971-1] | ≥ 49.5 µM | ≥ 49.5 µM |  | 
COc1ccc(CCNC(=O)C(=O)Nc2cc(Cl)c(Br)c(Cl)c2)cc1 [SW206875-1-A] | 17.8 µM | 25.3 µM |  | 
COc1ccc(CCNC(=O)C(=O)Nc2ccc(Cl)c(C(F)(F)F)c2)cc1 [SW206962-1] | ≥ 49.5 µM | 1.4 µM |  | 
COc1ccc(CCCNC(=O)NCc2ccccc2)cc1 [SW208120-1-A] | ≥ 49.5 µM | 38.9 µM |  | 
COc1ccc(CCNC(=O)C(=O)Nc2cnccn2)cc1 [SW208137-1-A] | ≥ 49.5 µM | ≥ 49.5 µM |  | 
COc1ccc2nc(NC(=O)c3ccc(C(=O)N4CCN(C)CC4)cc3)sc2c1 [SW203669] |  |  | ≥ 49.5 µM | 
COc1ccc(CCNC(=O)C(=O)Nc2ccc(Cl)c(Cl)c2)cc1 [SW206960-1] | ≥ 49.5 µM | 0.491 µM |  | 

Structure (SMILES) | IC50 [1, 3] | IC50 [2, 4] | IC50 [2, 5] | further results
COc1ccc(CCNC(=O)C(=O)Nc2ccc(OC)cc2C)cc1 [SW206968-1] | ≥ 49.5 µM | ≥ 49.5 µM |  | 
COc1ccc(CCCNC(=O)NCc2ccc(Cl)cc2)cc1 [SW208121-1-A] | 5.75 µM | 3.67 µM |  | 
COc1ccc(C(=O)c2ccc(NC(=O)C(=O)NCCc3ccc(O)cc3)cc2)cc1 [SW208117-1-A] | 15.6 µM | 0.031 µM |  | IC50 ([2]; NCI-H2122, Table 9, competitor, read-out: IC50 to H2122 cells): 0.0244 µM
COc1ccc(CCNC(=O)C(=O)Nc2ccc(Cl)c(Br)c2)cc1 [SW206954-1] | ≥ 49.5 µM | 0.871 µM |  | 
COc1ccc(CCNC(=O)C(=O)Nc2ccc(Cl)cc2Br)cc1 [SW206953-1] | 41.7 µM | ≥ 49.5 µM |  | 
COc1ccc(CCNC(=O)c2cnc3ccccc3n2)cc1 [SW208051-1-A] | ≥ 49.5 µM | ≥ 49.5 µM |  | 
COc1ccc2nc(NC(=O)c3ccc(C(O)c4ccccn4)cc3)sc2c1 (stereo not shown) [SW203726] |  |  | 0.029 µM | 
C#CCOCCOCCOCCOCCOc1ccc2nc(NC(=O)c3ccc(C(=O)c4ccccc4)cc3)sc2c1 [SW203734] |  |  | 0.939 µM | 
COc1ccc2nc(NC(=O)c3ccc(C(O)c4ccncc4)cc3)sc2c1 (stereo not shown) [SW203735] |  |  | 0.036 µM | 
COc1ccc2nc(NC(=O)c3ccc(C(=O)N4CCCCC4)cc3)sc2c1 [SW203730] |  |  | 0.845 µM | 
COc1ccc2nc(NC(=O)c3ccc(C(=O)c4cccnc4)cc3)sc2c1 [SW203733] |  |  | 0.017 µM | 
COc1ccc2nc(NS(=O)(=O)c3ccc4c(c3)OCCO4)sc2c1 [SW202748] |  |  |  | IC50 ([1]; NCI-H1819, Tables 3 and 4, read-out: IC50 (uM) vs indicated non-small cell lung cancer cell line H1819): 69 µM
COc1ccc(Nc2ccc(C(=O)Nc3nc4ccc(OC)cc4s3)cc2)cc1 [SW203671] |  |  | 0.314 µM | 
COc1ccc2nc(NC(=O)c3ccc(N=[N+]=[N-])cc3)sc2c1 [SW203728] |  |  | 0.12 µM | 
C#CCOc1ccc(CCNC(=O)C(=O)Nc2ccc(C(=O)c3ccccc3)cc2)cc1 [SW207038] |  |  |  | IC50 ([2]; NCI-H2122, cell prints its own unit, 12-point dose-response starting at 50 micromolar, read-out: toxicity data, H2122): > 1 µM
COc1ccc2nc(NC(=O)c3ccc(C(=O)c4ccccn4)cc3)sc2c1 [SW203727] |  |  | 0.016 µM | 
COc1ccc2nc(NC(=O)c3ccc(C(=O)N4CCOCC4)cc3)sc2c1 [SW203731] |  |  | 2.28 µM | 
